How the values were obtained:
[1] = test system: DEX-treated mice; test: Locomotion test (LMT), neonatal dexamethasone exposure model; type: in vivo; settings: juvenile DEX-treated mice, 10 mg/kg i.p., day after injection
Protocol: A new animal model of depression was prepared by exposing mice neonatally to dexamethasone (hereinafter abbreviated as DEX). […] The mouse model was prepared and reported only recently by the inventors of the present application and their collaborators (Non Patent Literature 18). […] Further, alterations were found in levels of amino acids (glutamate, glutamine, glycine, D-serine, and L-serine) in mouse brains after the neonatal DEX exposure (Non Patent Literature 18). Those amino acids are known to be associated with NMDA receptor mediated neurotransmission. Thus, it is conceivable that alterations in glutamatergic transmission via the NMDA receptor after the neonatal DEX exposure may be involved in the depression-like behavior in the juvenile mice and the adult mice (Non Patent Literature 18). […]
The antidepressant effects of the agent were investigated for juvenile mice by behavioral tests such as the TST, the PST, the LMT, and a 1% sucrose preference test (SPT) (FIG. 2A). […] The immobility time of each mouse was recorded for 10 minutes. […] The immobility time was calculated as a value obtained by subtracting active time from total time, using the analysis software of the apparatus. Cumulative immobility time was recorded over 6 minutes during a test period. […] The locomotor activity of the mice was counted with SCANET MV-40, and the cumulative exercise of the mice was recorded for 60 minutes. […]

[2] = test system: medial forebrain bundle self-stimulation in rats; test: Intracranial self-stimulation (ICSS), frequency-rate procedure; settings: for ICSS, anhedonia: doses 10, 30 mg/kg, Present study; for ICSS frequency-rate response curve: rats, 3, 10 or 30 mg/kg i.p. 2 hours prior to test session, vs saline vehicle
[3] = test system: social defeat stress mice; test: 1% sucrose preference test (SPT), social defeat stress model; type: in vivo; settings: 10 mg/kg i.p.
Protocol: A social defeat stress model of depression was prepared by bringing C57/B6 male mice into contact with ICR male mice (large aggressive mice) for 10 consecutive days to apply a stress called a “social defeat stress” in accordance with the previous report (Non Patent Literature 19). […] Specifically, an increase in immobility time was found in each of a tail suspension test (TST) and a forced swimming test (FST).
The preparation of the animal model of depression and the administration of the agent were specifically performed as described below (FIG. 3A). Male C57/B6 mice (7-week-old, Japan SLC, Inc., Hamamatsu, Japan) and ICR mice (9-week-old, Japan SLC, Inc., Hamamatsu, Japan) were used. The mice were given free access to water and feed. A social defeat stress was applied by housing one C57/B6 mouse with one ICR mouse for 10 days.
The antidepressant effects of the agent were investigated by behavioral tests such as the TST, the PST, the LMT, and a 1% sucrose preference test (SPT) (FIG. 3A). The 1% sucrose preference test (SPT) was performed on 1 day and 6 days after the injection of ketamine. Each of the TST and the PST was performed on 2 days and 7 days after the injection of ketamine. The TST was performed as described below. First, the mice were taken out from cages, and then a small piece of an adhesive tape was bonded onto a portion approximately 2 cm away from the tip of the tail of the mice. A small hole was opened in the small piece, and the mice were each fixed upside down on a hook through the small hole. The immobility time of each mouse was recorded for 10 minutes. Mice were considered immobile only when they hung passively and completely motionless. The immobility time increases in a depressive state. The PST was performed as described below. First, the mice were placed individually in a cylinder (diameter: 23 cm; height: 31 cm) containing 15 cm of water, maintained at 22 to 24 deg C. The mice were tested in an automated forced-swimming apparatus using SCANET MV-40 ([…] Co., Ltd., Toyama, Japan). The immobility time was calculated as a value obtained by subtracting active time from total time, using the analysis software of the apparatus. Cumulative immobility time was recorded over 6 minutes during a test period. The LMT was performed as described below. First, the mice were placed in experimental cages (length×width×height: 560×560×330 mm). The locomotor activity of the mice was counted with SCANET MV-40, and the cumulative exercise of the mice was recorded for 60 minutes. The cages were cleaned between testing session. The immobility time increases in a depressive state. […] A spine density was quantitatively evaluated by observation with a KEYENCE microscope (BZ-9000, Osaka, Japan).

[4] = 3 mg/kg i.p. 2 hours prior to test session, 10 rats
[5] = 10 mg/kg i.p. 2 hours prior to test session, 10 rats
[6] = 30 mg/kg i.p. 2 hours prior to test session, 10 rats
[7] = baseline session before dosing on the 3 mg/kg test day, 10 rats
[8] = baseline session before dosing on the 10 mg/kg test day, 10 rats
[9] = baseline session before dosing on the 30 mg/kg test day, 10 rats

Row | Compound | locomotion in the LMT [1] | M50, Test, mean log M50 frequency (SEM) [2, 4] | Threshold (T0), Test, mean log T0 frequency (SEM) [2, 4] | M50, Test, mean log M50 frequency (SEM) [2, 5] | Threshold (T0), Test, mean log T0 frequency (SEM) [2, 5] | M50, Test, mean log M50 frequency (SEM) [2, 6] | Threshold (T0), Test, mean log T0 frequency (SEM) [2, 6] | M50, Baseline, mean log M50 frequency (SEM) [2, 7] | Threshold (T0), Baseline, mean log T0 frequency (SEM) [2, 7] | M50, Baseline, mean log M50 frequency (SEM) [2, 8] | Threshold (T0), Baseline, mean log T0 frequency (SEM) [2, 8] | M50, Baseline, mean log M50 frequency (SEM) [2, 9] | Threshold (T0), Baseline, mean log T0 frequency (SEM) [2, 9] | ICSS, anhedonia [2] | ICSS frequency-rate response curve [2] | sucrose consumption preference in the SPT ([3]; 1 day after injection) | sucrose consumption preference in the SPT ([3]; 6 days after injection) | M50, Test, mean log M50 frequency ([2]; 15 mg/kg (so in the source) i.p., 10 rats) [log/Hz] | M50, Baseline, mean log M50 frequency (SEM) ([2]; baseline session before dosing on the 15 mg/kg (so in the source) test day, 10 rats)
1 | CN[C@@]1(c2ccccc2Cl)CCCCC1=O.Cl [R(−)-ketamine] | no difference in locomotion | 1.98 (0.01) log/Hz | 1.88 (0.02) log/Hz | 2.02 (0.02) log/Hz | 1.93 (0.03) log/Hz | 1.99 (0.02) log/Hz | 1.90 (0.02) log/Hz | 2.00 (0.02) log/Hz | 1.91 (0.02) log/Hz | 2.00 (0.02) log/Hz | 1.91 (0.03) log/Hz | 1.98 (0.02) log/Hz | 1.89 (0.02) log/Hz | 10, 30 - no anhedonia | did not significantly alter behavior of rats | sucrose consumption preference significantly increased | significantly restored the sucrose consumption preference | – | –
2 | CN[C@]1(c2ccccc2Cl)CCCCC1=O [S(+)-ketamine] | no difference in locomotion | 1.98 log/Hz | 1.88 log/Hz | – | 1.90 log/Hz | 2.07 log/Hz | 1.95 log/Hz | 1.97 (0.02) log/Hz | 1.86 (0.02) log/Hz | – | 1.87 (0.02) log/Hz | 1.98 (0.01) log/Hz | 1.87 (0.02) log/Hz | 10, 30 anhedonia | significant downward shift in the stimulation-frequency curve | sucrose consumption preference significantly increased | significantly restored the sucrose consumption preference | 2.00 | 1.97 (0.01) log/Hz
